Data reported in patent publication US8563742B2, “Substituted aminothiazole derivatives, pharmaceutical compositions, and methods of use” (High Point Pharmaceuticals, LLC, priority 2008, dated 2013).
Read-outs that look alike come from different tables or passages of the source.

Legend:
[1] = Pharmacokinetic screening in rats (plasma and brain); details: rat, 5 mg/kg PO; for concentration at 2 h: male, Sprague Dawley, po, 5 mg/kg, 2 hour time point; for Brain - 24 hours AUC (h * ng/g): 24 hour study
[2] = target: T1, human MC-4R (Homo sapiens, UniProt P32245); test: Biological Assay: inhibition of AgRP functional interaction with MC-4R in presence of αMSH (cAMP production); format: cell-based; details: HEK293 cells expressing human MC-4R, AgRP83-132 and αMSH present
T1 construct: expressed in transfected cells
T1 sequence (P32245 whole entry): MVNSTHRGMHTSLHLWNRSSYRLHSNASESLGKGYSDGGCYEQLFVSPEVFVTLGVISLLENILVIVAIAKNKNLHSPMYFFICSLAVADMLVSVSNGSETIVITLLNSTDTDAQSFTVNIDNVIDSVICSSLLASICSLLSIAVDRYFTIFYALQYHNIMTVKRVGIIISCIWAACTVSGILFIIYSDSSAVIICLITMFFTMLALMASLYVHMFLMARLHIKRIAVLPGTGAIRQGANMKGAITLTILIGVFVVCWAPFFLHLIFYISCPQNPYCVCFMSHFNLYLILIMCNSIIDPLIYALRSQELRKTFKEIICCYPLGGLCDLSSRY
Protocol: The following method is illustrative of techniques that may be employed to measure the ability of the compounds of Formula (I) to functionally modulate the binding of AgRP to melanocortin receptors. In particular, the assay below measures the ability of compounds of Formula (I) or pharmaceutically acceptable salts thereof to functionally modulate the binding of AgRP to MC-4R in the presence of a MC-4R agonist, such as alpha-MSH.
HEK293 cells stably expressing human MC-4R receptors were grown in high glucose Dulbecco's Modified Eagle Medium (DMEM) with 4500 mg glucose/L, L-glutamine, NaHCO3, pyrdoxin HCl, 10 mM HEPES (pH 7.4), 0.1 mM NEAA (non-essential amino acid medium) (GIBCO Cat#11140-050), 10% fetal bovine serum and 700 μg/mL G418. Cells were grown in T-225 flasks at 37° C. with CO2 and humidity control.
On the day of assay, cells were washed twice with phosphate buffered saline without calcium and magnesium (PBS) and incubated with 10 mL PBS until the cells were detached from the flask. The detached cells were centrifuged at 240 g for 5 min. The cell pellet was re-suspended in assay buffer (Earle's balanced salt solution (Sigma E3024) supplemented with 10 mM HEPES, pH 7.4, 0.5 mM IBMX and protease inhibitor cocktail (Roche, 1 complete tablet/75 mL buffer)).
The inhibitory or enhancement effect of compounds on AgRP activity was measured in a multi-component assay containing testing compounds, AgRP83-132 (human, Phoenix Pharma, cat no. 003-53), cells expressing MC-4R, and αMSH (Bachem, cat no. H-1075). Test compounds, AgRP and αMSH were diluted with assay buffer. Test compounds and AgRP were mixed to 4 times of the final concentration and incubated at room temperature for 30 min. Five μL of testing compound/AgRP solution followed with 10 μL of cells (20,000 cells/well) were added to each well of a 384-well reaction plate before 5 μL of αMSH was added. Cells were stimulated with αMSH for an additional 30 min at 37° C.
Stimulation of cells was stopped by adding a lysis buffer and cells were lysed. The intracellular concentration of cAMP may be measured by various techniques known to one of skill in the art including, but not limited to, fluorescence polarization (FP) and time-resolved fluorescence (TRF).
The inhibition was shown by an increase in MC-4R mediated cAMP production.

[3] = Stability in Liver Microsomes (human); format: in vitro ADME; details: 1 μM, 0.5 mg protein/mL, NADPH, 60 minutes, 37° C., pH 7.4
Protocol: (§1) Various compounds were tested for their stability in human, monkey, dog, rat, and mouse liver microsomes. At a final concentration of 1 μM, compounds were incubated with either human, monkey, dog, rat, or mouse liver microsomes (0.5 mg protein/mL) in the presence of an NADPH-solution for 60 minutes at 37° C., pH 7.4 in phosphate buffer. Incubations were performed in duplicate. Reactions were terminated by the addition of methanol. The incubation solution was vortexed and transferred into a 96-well plate. The plate was sealed and centrifuged at approximately 3500 rpm for approximately 10 minutes. After centrifugation, the plate was loaded into 96-well plate autosampler and analyzed by LC/MS. Values are reported as percent of compound remaining after 1 hour.

[4] = Stability in Liver Microsomes (dog); format: in vitro ADME; details: 1 μM, 0.5 mg protein/mL, NADPH, 60 minutes, 37° C., pH 7.4
Protocol: as §1

[5] = Stability in Liver Microsomes (rat); format: in vitro ADME; details: 1 μM, 0.5 mg protein/mL, NADPH, 60 minutes, 37° C., pH 7.4
Protocol: as §1

[6] = Stability in Liver Microsomes (mouse); format: in vitro ADME; details: 1 μM, 0.5 mg protein/mL, NADPH, 60 minutes, 37° C., pH 7.4
Protocol: as §1

[7] = Stability in Liver Microsomes (monkey); format: in vitro ADME; details: 1 μM, 0.5 mg protein/mL, NADPH, 60 minutes, 37° C., pH 7.4
Protocol: as §1

[8] = plasma, Plasma - 2 hours (ng/mL)
[9] = read-out: Average EC50 (nM) in Biological Assay

SMILES	concentration at 2 h ([1]; brain, Brain - 2 hours (ng/g)) [ng/g]	concentration at 2 h [1, 8] [ng/mL]	EC50 [2, 9] [nM]	further results
CCc1ccc(CN(CCC(=O)O)c2nc(C3CCCCC3)cs2)s1 [Example 2, 3-[(4-cyclohexyl-thiazol-2-yl)-(5-ethyl-thiophen-2-ylmethyl)-amino]-propionic acid]	80	261	135	–
CCc1ccc(CN(CCC(=O)O)c2nc(CC3CCCCC3)cs2)s1 [Example 3, 3-[(4-Cyclohexylmethyl-thiazol-2-yl)-(5-ethyl-thiophen-2-ylmethyl)-amino]-propionic acid]	691	2650	246	–
CCc1ccc(CN(CCC(=O)O)c2nc(CC3CCCC3)cs2)s1 [Example 4, 3-[(4-Cyclopentylmethyl-thiazol-2-yl)-(5-ethyl-thiophen-2-ylmethyl)-amino]-propionic acid]	98	590	324	–
Cc1ccc(CN(CCC(=O)[O-])c2nc(C3(c4ccccc4)CCCCC3)cs2)s1.[Na+] [Example 6, Sodium; 3-{(5-methyl-thiophen-2-ylmethyl)-[4-(1-phenyl-cyclohexyl)-thiazol-2-yl]-amino}-propionate]	248	445	250	Brain - 24 hours AUC (h * ng/g) [1]: + (values less than 5,000 h*ng/g)
CCC1CCC(c2csc(N(CCC(=O)O)Cc3ccc(C)s3)n2)CC1 (stereo not shown) [Example 19, 3-[[4-(4-Ethyl-cyclohexyl)-thiazol-2-yl]-(5-methyl-thiophen-2-ylmethyl)-amino]-propionic acid]	–	–	–	Stability in Liver Microsomes (% remaining after 1 hour incubation) Human [3]: 43%; Stability in Liver Microsomes (% remaining after 1 hour incubation) Dog [4]: 87%; Stability in Liver Microsomes (% remaining after 1 hour incubation) Rat [5]: 52%; Stability in Liver Microsomes (% remaining after 1 hour incubation) Mouse [6]: 73%; Stability in Liver Microsomes (% remaining after 1 hour incubation) Monkey [7]: 60%; EC50 ([2]; Average EC50 (nM) in Biological Assay): 386 nM
Cc1ccc(CN(CCC(=O)O)c2nc(C3(CC(C)C)CCCC3)cs2)s1 [Example 42, 3-[[4-(1-Isobutyl-cyclopentyl)-thiazol-2-yl]-(5-methyl-thiophen-2-ylmethyl)-amino]-propionic acid]	42	50	116	–
CCc1ccc(CN(CCC(=O)[O-])c2nc(C3(C)CCC(C)CC3)cs2)s1.[Na+] (stereo not shown) [Example 47, Sodium; 3-[[4-(1,4-dimethyl-cyclohexyl)-thiazol-2-yl]-(5-ethyl-thiophen-2-ylmethyl)-amino]-propionate]	886	2090	58	Brain - 24 hours AUC (h * ng/g) [1]: + (values less than 5,000 h*ng/g)
Cc1ccc(CN(CCC(=O)O)c2nc(C3(C)CCC(C(C)C)CC3)cs2)s1 (stereo not shown) [Example 48, Sodium; 3-[[4-(4-isopropyl-1-methyl-cyclohexyl)-thiazol-2-yl]-(5-methyl-thiophen-2-ylmethyl)-amino]-propionate]	251	486	73	–
Cc1ccc(CN(CCC(=O)O)c2nc(C3CC(C)(C)CC(C)(C)C3)cs2)s1 [Example 53, 3-{(5-methyl-thiophen-2-ylmethyl)-[4-(3,3,5,5-tetramethyl-cyclohexyl)-thiazol-2-yl]-amino}-propionic acid]	–	–	307	–
CCc1ccc(CN(CCC(=O)O)c2nc(C3CCC(C)(C)CC3)cs2)s1 [Example 54, 3-[[4-(4,4-Dimethyl-cyclohexyl)-thiazol-2-yl]-(5-ethyl-thiophen-2-ylmethyl)-amino]-propionic acid]	2980	7710	36	Brain - 24 hours AUC (h * ng/g) [1]: ++++ (values above 20,000 h*ng/g)
Cc1ccc(CN(CCC(=O)O)c2nc(C3CCC(C)(C)CC3)c(C)s2)s1 [Example 56, Sodium; 3-[[4-(4,4-dimethyl-cyclohexyl)-5-methyl-thiazol-2-yl]-(5-methyl-thiophen-2-ylmethyl)-amino]-propionate]	–	–	217	–
CC(C)(C)[C@H]1CC[C@H](c2csc(N(CCC(=O)O)Cc3cccs3)n2)CC1 [Reference Compound D, Sodium 3-[[4-(trans-4-tert-butyl-cyclohexyl)-thiazol-2-yl]-(thiophen-2-ylmethyl)-amino]-propionate, reference compound]	–	–	–	Stability in Liver Microsomes (% remaining after 1 hour incubation) Human [3]: 51%; Stability in Liver Microsomes (% remaining after 1 hour incubation) Dog [4]: 47%; Stability in Liver Microsomes (% remaining after 1 hour incubation) Rat [5]: 26%; Stability in Liver Microsomes (% remaining after 1 hour incubation) Mouse [6]: 79%; Stability in Liver Microsomes (% remaining after 1 hour incubation) Monkey [7]: 76%
O=C([O-])CCN(Cc1cccs1)c1nc(C2CCC(c3ccccc3)CC2)cs1.[Na+] (stereo not drawn) [Reference Compound E, Sodium 3-[[4-(trans-4-phenyl-cyclohexyl)-thiazol-2-yl]-(5-thiophen-2-ylmethyl)-amino]-propionate, reference compound]	–	–	–	Stability in Liver Microsomes (% remaining after 1 hour incubation) Human [3]: 60%; Stability in Liver Microsomes (% remaining after 1 hour incubation) Dog [4]: 50%; Stability in Liver Microsomes (% remaining after 1 hour incubation) Rat [5]: 52%; Stability in Liver Microsomes (% remaining after 1 hour incubation) Mouse [6]: 51%; Stability in Liver Microsomes (% remaining after 1 hour incubation) Monkey [7]: 38%
CCc1ccc(CN(CCC(=O)[O-])c2nc(-c3ccc(N4CCCC4)cc3)cs2)s1.[Na+] [Reference Compound F, reference compound]	–	–	–	Stability in Liver Microsomes (% remaining after 1 hour incubation) Human [3]: 40%; Stability in Liver Microsomes (% remaining after 1 hour incubation) Dog [4]: 45%; Stability in Liver Microsomes (% remaining after 1 hour incubation) Rat [5]: 27%; Stability in Liver Microsomes (% remaining after 1 hour incubation) Mouse [6]: 30%; Stability in Liver Microsomes (% remaining after 1 hour incubation) Monkey [7]: 5%

Further lines, with some results ahead:

concentration at 2 h ([1]; brain, Brain - 2 hours (ng/g)) [ng/g]	concentration at 2 h [1, 8] [ng/mL]	EC50 [2, 9] [nM]	SMILES	further results
–	–	187	Cc1ccc(CN(CCC(=O)O)c2nc(C3CC4CCCCC4C3)cs2)s1 (stereo not shown) [Example 57, 3-{(5-Methyl-thiophen-2-ylmethyl)-[4-(octahydro-inden-2-yl)-thiazol-2-yl]-amino}-propionic acid]	–
720	1330	94	CCc1ccc(CN(CCC(=O)O)c2nc(C3CC4CCCCC4C3)cs2)s1 (stereo not shown) [Example 58, 3-{(5-Ethyl-thiophen-2-ylmethyl)-[4-(octahydro-inden-2-yl)-thiazol-2-yl]-amino}-propionic acid]	–
–	–	160	Cc1cc(CN(CCC(=O)O)c2nc(C3CC4CCCCC4C3)cs2)c(C)s1 (stereo not shown) [Example 59, 3-{(2,5-Dimethyl-thiophen-3-ylmethyl)-[4-(octahydro-inden-2-yl)-thiazol-2-yl]-amino}-propionic acid]	–
–	–	321	Cc1ccc(CN(CCC(=O)O)c2nc(C3CCC4(CCCC4)CC3)cs2)s1 [Example 62, 3-[(5-methyl-thiophen-2-ylmethyl)-(4-spiro[4.5]dec-8-yl-thiazol-2-yl)-amino]-propionic acid]	–
–	–	283	Cc1ccc(CN(CCC(=O)O)c2nc(C3CCC4(CCCCC4)CC3)cs2)s1 [Example 63, 3-[(5-methyl-thiophen-2-ylmethyl)-(4-spiro[5.5]undec-3-yl-thiazol-2-yl)-amino]-propionic acid]	–
–	–	90	Cc1ccc(CN(CCC(=O)O)c2nc(CC3CCC(C)(C)CC3)cs2)s1 [Example 64, 3-[[4-(4,4-dimethyl-cyclohexylmethyl)-thiazol-2-yl]-(5-methyl-thiophen-2-ylmethyl)-amino]-propionic acid]	–
